Data on one compound can be found in PMC4791841, “Nanomolar Inhibitors of Trypanosoma brucei RNA Triphosphatase” (mBio, 2016).

The subject of one assay is procyclic T. brucei. The assay is described as follows: cell proliferation of cultured procyclic T. brucei. The assay is classed as cell-based, Trypanosoma brucei. Conditions: 10 µM; preliminary studies, data not shown.
Assay [1] deals with T1, TbCet1 (Trypanosoma brucei brucei, UniProt Q582T2).
T1 sequence (Q582T2 1-253): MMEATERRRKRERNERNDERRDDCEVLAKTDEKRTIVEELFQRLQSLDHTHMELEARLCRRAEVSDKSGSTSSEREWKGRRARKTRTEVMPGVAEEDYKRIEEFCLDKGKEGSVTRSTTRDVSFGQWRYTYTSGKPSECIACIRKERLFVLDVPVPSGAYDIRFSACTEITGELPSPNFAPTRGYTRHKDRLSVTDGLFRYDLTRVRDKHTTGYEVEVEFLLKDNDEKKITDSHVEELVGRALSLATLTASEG
The assay is described as follows: TLC assay for 32Pi release from [γ-32P]ATP, TbCet1. Conditions: IC50 TbCet1 by 32P assay, 2.2 nM TbCet1, 0.2 mM ATP, 2 mM Mn2+, 10 min 37°C.

A further assay addresses T2, MimiCE (Acanthamoeba polyphaga mimivirus, UniProt Q5UQX1).
T2 construct: the N-terminal RTPase domain (amino acids [aa] 1 to 237) of mimivirus capping enzyme (MimiCE); HisSmt3 (N, cleaved yes); made in house; host or cells: Escherichia coli
The assay is described as follows: biochemical. The class given is biochemical.

The next assay concerns the target T3, SceCet1 (Saccharomyces cerevisiae, UniProt O13297).
T3 construct: C-terminal catalytic domain (aa 241 to 539) of S. cerevisiae RTPase (SceCet1); made in house; host or cells: Escherichia coli
The assay is described as follows: TLC assay for 32Pi release from [γ-32P]ATP, SceCet1. The class given is biochemical.

A further assay addresses T4, CthTTM (Acetivibrio thermocellus, UniProt A3DIJ8).
T4 sequence (A3DIJ8 1-156): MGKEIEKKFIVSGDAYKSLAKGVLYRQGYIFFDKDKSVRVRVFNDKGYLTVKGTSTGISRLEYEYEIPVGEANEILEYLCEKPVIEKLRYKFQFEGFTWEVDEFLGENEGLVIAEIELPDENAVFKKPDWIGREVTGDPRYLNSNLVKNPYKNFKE
The assay is described as follows: TLC assay for 32Pi release from [γ-32P]ATP, CthTTM. The assay is classed as biochemical, Clostridium thermocellum.

The next assay deals with T5, Lef4 (Autographa californica nuclear polyhedrosis virus, UniProt P41477).
T5 construct: the N-terminal RTPase domain (aa 1 to 236) of AcNPV Lef4 capping enzyme; HisSmt3 (N, cleaved yes); made in house; host or cells: Escherichia coli
The assay is described as follows: TLC assay for 32Pi release from [γ-32P]ATP, Lef4.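 Further: Lef4 RNA triphosphatase cleaving radiolabelled ATP over 10 min at 37°C, hydrolysis set relative to inhibitor-free 5% DMSO controls, comparisons made against TbCet1 tested the same way.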 The assay is classed as biochemical, Autographa californica nucleopolyhedrovirus (AcNPV).

In assay [2] the target is T1, TbCet1. The assay is described as follows: colorimetric malachite green HTS assay of Pi release from ATP by TbCet1.
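Wherever IC50 MimiCE is given: mimivirus capping enzyme triphosphatase ATPase reaction, radiolabeled ATP hydrolysis to Pi quantified by TLC after 10 min, normalized to no-inhibitor control with 5% DMSO.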
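Wherever IC50/IC50 TbCet1, MimiCE is given: mimivirus capping enzyme triphosphatase ATPase reaction, radiolabeled ATP hydrolysis to Pi quantified by TLC after 10 min, normalized to no-inhibitor control with 5% DMSO.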
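Wherever fold lower potency against MimiCE than against TbCet1 is given: mimivirus capping enzyme triphosphatase ATPase reaction, radiolabeled ATP hydrolysis to Pi quantified by TLC after 10 min, normalized to no-inhibitor control with 5% DMSO.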

T3 sequence (O13297 241-539): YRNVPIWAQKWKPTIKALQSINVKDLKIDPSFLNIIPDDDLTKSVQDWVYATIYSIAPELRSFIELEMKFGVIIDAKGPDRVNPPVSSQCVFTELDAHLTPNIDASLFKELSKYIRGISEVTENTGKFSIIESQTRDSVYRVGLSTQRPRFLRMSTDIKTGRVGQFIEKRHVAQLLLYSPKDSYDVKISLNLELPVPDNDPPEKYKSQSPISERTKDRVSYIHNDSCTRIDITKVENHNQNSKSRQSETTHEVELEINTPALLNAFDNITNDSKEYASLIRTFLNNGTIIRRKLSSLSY
T2 sequence (Q5UQX1 1-237): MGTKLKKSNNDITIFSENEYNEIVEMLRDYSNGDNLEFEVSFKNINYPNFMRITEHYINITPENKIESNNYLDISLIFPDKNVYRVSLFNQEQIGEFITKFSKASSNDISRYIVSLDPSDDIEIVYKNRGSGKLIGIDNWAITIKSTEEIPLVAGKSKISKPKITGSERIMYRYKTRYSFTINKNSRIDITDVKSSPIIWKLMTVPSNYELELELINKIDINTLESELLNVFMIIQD
T5 sequence (P41477 1-236): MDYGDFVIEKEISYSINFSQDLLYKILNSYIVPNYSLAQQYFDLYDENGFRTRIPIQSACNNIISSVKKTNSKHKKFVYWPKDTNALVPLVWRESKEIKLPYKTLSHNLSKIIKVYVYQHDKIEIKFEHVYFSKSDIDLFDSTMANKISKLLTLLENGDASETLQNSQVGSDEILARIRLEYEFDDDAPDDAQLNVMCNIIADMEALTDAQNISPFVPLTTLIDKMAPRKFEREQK

For the compound `O=C(/C=C/c1ccc(O)c(O)c1)O[C@@H]1C[C@](OC(=O)/C=C/c2ccc(O)c(O)c2)(C(=O)O)C[C@@H](OC(=O)/C=C/c2ccc(O)c(O)c2)[C@H]1OC(=O)/C=C/c1ccc(O)c(O)c1` [Compound 1A, 1,3,4,5-O-tetracaffeoylquinic acid], the “effect on cell proliferation” value with procyclic T. brucei was “no effect”. The IC50 against TbCet1 [1] was 0.013 µM; on MimiCE (7 nM MimiCE, 37°C, read-out: IC50 MimiCE), 1.4 µM; on SceCet1 it was 7.1 µM; at CthTTM (500 nM CthTTM, 37°C, read-out: IC50 CthTTM), 11 µM; at Lef4 (50 nM Lef4, 37°C, read-out: IC50 Lef4), 5.7 µM; at TbCet1 [2] it was 0.02 µM. In addition, at MimiCE, the “fold lower potency against MimiCE than against TbCet1” value is given as 110 fold. Further, the “IC50/IC50 TbCet1, MimiCE” value on MimiCE (ratio in parentheses) came to 108. Moreover, the “fold lower potency against SceCet1 than against TbCet1” value on SceCet1 came to 550 fold. On SceCet1 (ratio in parentheses), the “IC50/IC50 TbCet1, SceCet1” value is listed as 546. Moreover, on CthTTM, the “fold lower potency against CthTTM than against TbCet1” value came out at 850 fold. The “IC50/IC50 TbCet1, CthTTM” value at CthTTM (ratio in parentheses) was 846. The “fold lower potency against Lef4 than against TbCet1” value on Lef4 came to 440 fold. The “IC50/IC50 TbCet1, Lef4” value on Lef4 (ratio in parentheses) turned out to be 438.
